Earlier results as cited in US20080280861A1, “Method of Female Contraception and a Kit For Use Therein” (PANTARHEI BIOSCIENCE B.V., priority 2004, published 2008).

Conditions: relative to levonorgestrel dosage; known in the art

First: C#C[C@]1(OC(C)=O)CC[C@H]2[C@@H]3CCC4=CC(=NO)CC[C@@H]4[C@H]3CC[C@@]21CC (mixture of isomers) [Norgestimate]
Second: C#C[C@]1(O)CC[C@H]2[C@@H]3CCC4=CC(=O)CC[C@@H]4[C@H]3CC[C@@]21C [Norethisterone]
The Conversion factor of the first is lower: 1.7 for the first, 7 for the second.

Compared with `C[C@]12CCC(=O)C=C1[C@@H]1C[C@@H]1[C@H]1[C@@H]3[C@@H]4C[C@@H]4[C@@]4(CCC(=O)O4)[C@@]3(C)CC[C@@H]12` [Drospirenone], `CC(=O)[C@H]1CC[C@H]2[C@@H]3C=CC4=CC(=O)CC[C@@]4(C)[C@@H]3CC[C@]12C` [Dydrogesterone] is higher in Conversion factor: 20 for the first, 133 for the second.
